Experimental data taken from ChEMBL document CHEMBL2074138, “New multidrug-resistance-reversing drugs, MS-209 and SDZ PSC 833” (Cancer Chemother Pharmacol, 1997).

Biological target: ATP-dependent translocase ABCB1 (Homo sapiens, UniProt P08183)
Assay: TP_TRANSPORTER: increase in Doxorubicin intracellular accumulation (Doxorubicin: 0.05 ug/mL, MS-209: 3 uM) in K562/ADM cells
Assay type: functional, cell-based
Details: k562/adr

Chain of ATP-dependent translocase ABCB1 (P08183 whole entry): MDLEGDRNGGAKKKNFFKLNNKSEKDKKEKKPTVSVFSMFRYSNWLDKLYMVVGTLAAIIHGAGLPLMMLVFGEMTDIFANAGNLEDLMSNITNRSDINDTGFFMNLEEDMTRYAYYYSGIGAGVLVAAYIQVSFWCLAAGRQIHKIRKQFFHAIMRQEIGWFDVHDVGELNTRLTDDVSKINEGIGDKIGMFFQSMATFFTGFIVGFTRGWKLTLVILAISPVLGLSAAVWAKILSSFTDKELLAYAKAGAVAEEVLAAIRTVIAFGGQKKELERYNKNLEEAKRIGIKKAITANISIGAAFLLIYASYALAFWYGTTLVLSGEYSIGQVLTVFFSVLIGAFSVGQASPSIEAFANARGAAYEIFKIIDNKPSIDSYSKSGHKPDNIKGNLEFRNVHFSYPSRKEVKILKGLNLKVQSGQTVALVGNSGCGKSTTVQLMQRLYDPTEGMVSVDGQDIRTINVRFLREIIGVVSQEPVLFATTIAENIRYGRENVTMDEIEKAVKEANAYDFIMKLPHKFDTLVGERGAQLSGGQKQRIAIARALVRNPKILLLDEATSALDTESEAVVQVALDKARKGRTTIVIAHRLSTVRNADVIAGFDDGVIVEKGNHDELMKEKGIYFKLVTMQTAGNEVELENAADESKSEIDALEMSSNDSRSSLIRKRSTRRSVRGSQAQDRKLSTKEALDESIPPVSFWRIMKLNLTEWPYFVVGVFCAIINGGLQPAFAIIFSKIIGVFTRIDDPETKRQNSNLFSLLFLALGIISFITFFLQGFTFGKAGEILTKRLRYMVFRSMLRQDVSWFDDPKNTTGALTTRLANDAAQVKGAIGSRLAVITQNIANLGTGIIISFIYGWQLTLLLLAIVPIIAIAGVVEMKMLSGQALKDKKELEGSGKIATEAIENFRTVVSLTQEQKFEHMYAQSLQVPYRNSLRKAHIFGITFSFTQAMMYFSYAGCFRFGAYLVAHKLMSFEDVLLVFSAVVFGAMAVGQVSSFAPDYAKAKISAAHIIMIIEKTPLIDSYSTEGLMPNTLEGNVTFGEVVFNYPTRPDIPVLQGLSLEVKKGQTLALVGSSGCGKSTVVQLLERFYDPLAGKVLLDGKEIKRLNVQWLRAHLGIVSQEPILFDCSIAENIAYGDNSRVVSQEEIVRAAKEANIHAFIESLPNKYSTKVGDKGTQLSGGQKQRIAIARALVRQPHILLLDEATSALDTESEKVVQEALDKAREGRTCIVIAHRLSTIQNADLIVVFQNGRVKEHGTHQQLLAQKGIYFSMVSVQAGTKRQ

SMILES: O=C(C(c1ccccc1)c1ccccc1)N1CCN(C[C@@H](O)COc2cccc3ncccc23)CC1
- Activity: inhibitor [+]
